Results reported in patent publication US6706663B2, “Herbicidal 3-heterocyclic substituted benzisothiazole and benzisoxazole compounds” (Wyeth, priority 2000, dated 2004).

How the values were obtained:
[1] = test system: IPOHE (Ipomoea hederacea); experiment: Preemergence herbicidal evaluation; format: in vivo, (L.) Jacq.; conditions: preemergence, rated 4-5 weeks after treatment
[2] = test system: GLXMAW (Soybean, Williams); experiment: Postemergence herbicidal evaluation; format: in vivo, Glycine max, (L.) Merr. cv Williams; conditions: postemergence
Procedure, shortened: (§1)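 Visual 0–9 injury scores versus control plants, covering stand, vigour, malformation, size, chlorosis and general appearance, taken four to five weeks post-spray and averaged over replicate tests. Plants were sprayed at roughly two weeks old and held on greenhouse benches.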

SETVI (Setaria viridis) [3] = experiment: Postemergence herbicidal evaluation; format: in vivo, (L.) Beau; conditions: postemergence
Procedure, shortened: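 Ratings use a 0-9 visual scale covering stand, vigor, malformation, size, chlorosis and appearance versus a control, scored 4-5 weeks post-spray. Roughly two-week-old seedlings received about 0.0040-1.000 kg/ha active, applied in 50/50 acetone/water with 0.5% TWEEN 20. Multiple tests per compound were averaged.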

SETVI (Setaria viridis) [4] = experiment: Preemergence herbicidal evaluation; format: in vivo, (L.) Beau; conditions: preemergence, rated 4-5 weeks after treatment
Procedure, shortened: (§2)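 Visual 0-9 rating versus untreated control, taken four to five weeks post-treatment, scoring stand, vigor, malformation, size, chlorosis and overall appearance. Compound applied as aqueous acetone spray to freshly seeded soil cups, then kept under standard greenhouse care.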

[5] = test system: ECHCG (Echinochloa crus-galli); experiment: Preemergence herbicidal evaluation; format: in vivo, (L.) Beau; conditions: preemergence, rated 4-5 weeks after treatment
Procedure, shortened: as §2

ZEAMX (Corn, Field) = experiment: Preemergence herbicidal evaluation; format: in vivo, Zea mays, L.; conditions: preemergence, rated 4-5 weeks after treatment
GALAP (Galium aparine) [6] = experiment: Postemergence herbicidal evaluation; format: in vivo; conditions: postemergence
Procedure, shortened: as §1

CYPIR (Cyperus iria) = experiment: Flooded paddy, preemergence weed control; format: in vivo; conditions: rated 3-4 weeks after treatment, 0-9 rating scale
Procedure, shortened: (§3)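 Ratings of 0-9 reflect visual comparison with a control for stand, vigor, deformity, size, chlorosis and overall look. Propagules were placed in shallow silt loam (top 0.5 cm) under a continuous 1.5–3 cm flood and grown in the greenhouse.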

[7] = test system: GLXMAW (Soybean, Williams); experiment: Preemergence herbicidal evaluation; format: in vivo, Glycine max, (L.) Merr. cv Williams; conditions: preemergence, rated 4-5 weeks after treatment
[8] = test system: MOOVA (Monochoria vaginalis); experiment: Flooded paddy, preemergence weed control; format: in vivo, Presl.; conditions: rated 3-4 weeks after treatment, 0-9 rating scale
Procedure, shortened: as §3

GALAP (Galium aparine) [9] = experiment: Preemergence herbicidal evaluation; format: in vivo; conditions: preemergence, rated 4-5 weeks after treatment
Procedure, shortened: as §2

| SMILES | Preemergence herbicidal rating IPOHE ([1]; rate 0.0620 kg/ha) | Preemergence herbicidal rating IPOHE ([1]; rate 0.1250 kg/ha) | Preemergence herbicidal rating IPOHE ([1]; rate 0.2500 kg/ha) | GLXMAW herbicidal rating ([2]; rate 0.0320 kg/ha) | GLXMAW herbicidal rating ([2]; rate 0.0620 kg/ha) | SETVI herbicidal rating (SETVI (Setaria viridis) [3]; rate 0.0320 kg/ha) | SETVI herbicidal rating (SETVI (Setaria viridis) [3]; rate 0.0620 kg/ha) | Preemergence herbicidal rating SETVI (SETVI (Setaria viridis) [4]; rate 0.0620 kg/ha) | Preemergence herbicidal rating SETVI (SETVI (Setaria viridis) [4]; rate 0.1250 kg/ha) | Preemergence herbicidal rating SETVI (SETVI (Setaria viridis) [4]; rate 0.2500 kg/ha) | Preemergence herbicidal rating ECHCG ([5]; rate 0.0620 kg/ha) | Preemergence herbicidal rating ECHCG ([5]; rate 0.1250 kg/ha) | Preemergence herbicidal rating ECHCG ([5]; rate 0.2500 kg/ha) | Preemergence herbicidal rating ZEAMX (ZEAMX (Corn, Field); rate 0.0620 kg/ha) | Preemergence herbicidal rating ZEAMX (ZEAMX (Corn, Field); rate 0.1250 kg/ha) | Preemergence herbicidal rating ZEAMX (ZEAMX (Corn, Field); rate 0.2500 kg/ha) | GALAP herbicidal rating (GALAP (Galium aparine) [6]; rate 0.0320 kg/ha) | GALAP herbicidal rating (GALAP (Galium aparine) [6]; rate 0.0620 kg/ha) | herbicidal rating, CYPIR (CYPIR (Cyperus iria); rate 0.1250 kg/ha) | Preemergence herbicidal rating GLXMAW ([7]; rate 0.0620 kg/ha) | also measured |
| --- | --- | --- | --- | --- | --- | --- | --- | --- | --- | --- | --- | --- | --- | --- | --- | --- | --- | --- | --- | --- | --- |
| Cn1c(C(F)(F)F)cc(=O)n(-c2ccc3snc(-c4ccoc4)c3c2)c1=O [Compound 83, 3-[3-(3-furyl)-1,2-benzisothiazol-5-yl]-1-methyl-6-(trifluoromethyl)uracil] | 3.0 | 5.0 | 5.5 | 4.0 | 6.0 | 3.0 | 4.0 | 6.0 | 9.0 | 9.0 | 2.0 | 6.5 | 9.0 | 3.0 | 5.0 | 6.0 | 2.0 | 3.0 | 3.0 | 0.0 | herbicidal rating, CYPIR (CYPIR (Cyperus iria); rate 0.0080 kg/ha): 0.0; herbicidal rating, CYPIR (CYPIR (Cyperus iria); rate 0.0320 kg/ha): 0.0; Preemergence herbicidal rating GLXMAW ([7]; rate 0.1250 kg/ha): 2.5; Preemergence herbicidal rating GLXMAW ([7]; rate 0.2500 kg/ha): 6.0; herbicidal rating, MOOVA ([8]; rate 0.0080 kg/ha): 0.0; herbicidal rating, MOOVA ([8]; rate 0.0320 kg/ha): 9.0; herbicidal rating, MOOVA ([8]; rate 0.1250 kg/ha): 9.0; Preemergence herbicidal rating GALAP (GALAP (Galium aparine) [9]; rate 0.1250 kg/ha): 4.0 |
| CSCC1COC(c2nsc3ccc(-n4c(=O)cc(C(F)(F)F)n(C)c4=O)cc23)O1 (stereo not drawn) [Compound 84, 1-methyl-3-[3-[4-[(methylthio)methyl]-1,3-dioxolan-2-yl]-1,2-benzisothiazol-5-yl]-6-(trifluoromethyl)uracil] | 6.3 | 8.3 | 9.0 | 8.5 | 9.0 | 6.0 | 9.0 | 3.5 | 7.5 | 9.0 | 4.0 | 6.7 | 9.0 | 3.7 | 6.3 | 8.0 | 6.5 | 7.5 | 6.0 | 7.0 | GLXMAW herbicidal rating ([2]; rate 0.1250 kg/ha): 9.0; GALAP herbicidal rating (GALAP (Galium aparine) [6]; rate 0.1250 kg/ha): 9.0; herbicidal rating, CYPIR (CYPIR (Cyperus iria); rate 0.0080 kg/ha): 0.0; herbicidal rating, CYPIR (CYPIR (Cyperus iria); rate 0.0320 kg/ha): 1.5; Preemergence herbicidal rating GLXMAW ([7]; rate 0.1250 kg/ha): 9.0; Preemergence herbicidal rating GLXMAW ([7]; rate 0.2500 kg/ha): 9.0; herbicidal rating, MOOVA ([8]; rate 0.0080 kg/ha): 9.0; herbicidal rating, MOOVA ([8]; rate 0.0320 kg/ha): 9.0; herbicidal rating, MOOVA ([8]; rate 0.1250 kg/ha): 9.0; Preemergence herbicidal rating GALAP (GALAP (Galium aparine) [9]; rate 0.0620 kg/ha): 7.0; Preemergence herbicidal rating GALAP (GALAP (Galium aparine) [9]; rate 0.1250 kg/ha): 8.0; Preemergence herbicidal rating GALAP (GALAP (Galium aparine) [9]; rate 0.2500 kg/ha): 9.0 |
| Cn1c(C(F)(F)F)cc(=O)n(-c2ccc3snc(-c4sccc4CO)c3c2)c1=O [Compound 85, 3-[3-[3-(hydroxymethyl)-2-thienyl]-1,2-benzisothiazol-5-yl]-1-methyl-6-(trifluoromethyl)uracil] | 0.0 | 4.0 | 7.0 | 3.5 | 4.0 | 5.0 | 9.0 | 4.0 | 9.0 | 7.0 | 0.0 | 3.0 | 4.0 | 0.0 | 3.0 | 3.0 | 4.0 | 6.0 | 6.0 | 0.0 | CYPIR herbicidal rating (CYPIR (Cyperus iria); rate 0.0080 kg/ha): 0.0; CYPIR herbicidal rating (CYPIR (Cyperus iria); rate 0.0320 kg/ha): 0.0; Preemergence herbicidal rating GLXMAW ([7]; rate 0.1250 kg/ha): 3.0; Preemergence herbicidal rating GLXMAW ([7]; rate 0.2500 kg/ha): 9.0; MOOVA herbicidal rating ([8]; rate 0.0080 kg/ha): 9.0; MOOVA herbicidal rating ([8]; rate 0.0320 kg/ha): 7.0; herbicidal rating, MOOVA ([8]; rate 0.1250 kg/ha): 9.0; Preemergence herbicidal rating GALAP (GALAP (Galium aparine) [9]; rate 0.0620 kg/ha): 4.0; Preemergence herbicidal rating GALAP (GALAP (Galium aparine) [9]; rate 0.1250 kg/ha): 6.0; Preemergence herbicidal rating GALAP (GALAP (Galium aparine) [9]; rate 0.2500 kg/ha): 9.0 |
